According to ChEMBL document CHEMBL4619799, “Mechanistic Insight into Antiretroviral Potency of 2'-Deoxy-2'-β-fluoro-4'-azidocytidine (FNC) with a Long-Lasting Effect on HIV-1 Prevention” (J Med Chem, 2020):
Active and inactive are the calls of the source. The calls are words filed in the database; no cut-off is given here.

Columns and labels:
[1] = test system: Human immunodeficiency virus 1; assay: Antiviral activity against HIV1 infected patient assessed as […] in CD4-positive T cell count at 4 mg administered daily for 7 days measured 24 hrs post-last dose by immunostaining based flow cytometry analysis; type: functional, organism-based
Homo sapiens = assay: In vivo inhibition of Vif-induced A3G degradation in HIV1 infected patient assessed as increase in A3G expression in CD4-positive T cells at 4 mg administered daily for 7 days measured 24 hrs post-last dose by Western blot analysis; type: functional, organism-based
[2] = test system: Human immunodeficiency virus 1; assay: Antiviral activity against VSVG pseudotyped HIV1 infected in HEK293 cells preincubated for 3 hrs followed by compound washout and subsequent compound redosing and measured after 72 hrs by luciferase reporter gene based assay; type: functional, organism-based; settings: Human immunodeficiency virus 1, HEK293
[3] = Cytotoxicity against HEK293 cells assessed as cell viability by MTT assay; type: cell-based; settings: human
[4] = test system: Human immunodeficiency virus 1; assay: Potency index, ratio of lamivudine EC50 to test compound EC50 for antiviral activity against VSVG pseudotyped HIV1 infected in HEK293 cells; type: functional
[5] = Cytotoxicity against human Hut/CCR5 cells assessed as reduction in cell viability measured after 72 hrs by MTT assay; type: cell-based
[6] = Selectivity index, ratio of CC50 for human Hut/CCR5 cells to EC50 for antiviral activity against JRFL pseudotyped HIV1 infected in human Hut/CCR5 cells; type: toxicity, cell-based; settings: read-out: Ratio CC50/EC50
[7] = test system: Human immunodeficiency virus 1; assay: Synergistic antiviral activity against JRFL pseudotyped HIV1 infected in human Hut/CCR5 cells assessed as combination index in presence of dolutegravir by luciferase reporter gene based assay; type: functional
[8] = AUC (0 to 24 hrs) in monkey plasma at 1 mg/kg, po administered as single dose by LC-MS/MS analysis; type: ADME, organism-based, Macaca mulatta; design: time < 24 hr, dose 1 mg/kg, route oral; settings: rhesus monkey
[9] = Tmax in monkey plasma at 1 mg/kg, po administered as single dose by LC-MS/MS analysis; type: ADME, organism-based, Macaca mulatta; settings: rhesus monkey
[10] = Cmax in monkey plasma at 1 mg/kg, po administered as single dose by LC-MS/MS analysis; type: ADME, organism-based, Macaca mulatta; design: dose 1 mg/kg, route oral; settings: rhesus monkey
[11] = AUC (0 to 24 hrs) in monkey at 6 mg/kg, po administered as single dose by LC-MS/MS analysis; type: ADME, organism-based, Macaca mulatta; design: dose 6 mg/kg, time < 24 hr, route oral; settings: rhesus monkey, in vivo
[12] = Tmax in monkey plasma at 6 mg/kg, po administered as single dose by LC-MS/MS analysis; type: ADME, organism-based, Macaca mulatta; settings: rhesus monkey
[13] = AUC (0 to 24 hrs) in monkey PBMC assessed as FNC-TP level at 1 mg/kg, po administered as single dose by LC-MS/MS analysis; type: ADME, organism-based, Macaca mulatta; design: time < 24 hr, dose 1 mg/kg, route oral; settings: rhesus monkey, in vivo
[14] = Tmax in monkey PBMC assessed as FNC-TP level at 1 mg/kg, po administered as single dose by LC-MS/MS analysis; type: ADME, organism-based, Macaca mulatta; settings: rhesus monkey, in vivo
[15] = Cmax in monkey PBMC assessed as FNC-TP level at 1 mg/kg, po administered as single dose by LC-MS/MS analysis; type: ADME, organism-based, Macaca mulatta; design: dose 1 mg/kg, route oral; settings: rhesus monkey, in vivo
[16] = AUC (0 to 24 hrs) in monkey PBMC assessed as FNC-TP level at 6 mg/kg, po administered as single dose by LC-MS/MS analysis; type: ADME, organism-based, Macaca mulatta; design: dose 6 mg/kg, time < 24 hr, route oral; settings: rhesus monkey, in vivo
[17] = Elimination half life in monkey PBMC assessed as FNC-TP level at 6 mg/kg, po administered as single dose by LC-MS/MS analysis; type: ADME, organism-based, Macaca mulatta; settings: rhesus monkey, in vivo
[18] = Tmax in monkey PBMC assessed as FNC-TP level at 6 mg/kg, po administered as single dose by LC-MS/MS analysis; type: ADME, organism-based, Macaca mulatta; settings: rhesus monkey, in vivo
[19] = Cmax in monkey PBMC assessed as FNC-TP level at 6 mg/kg, po administered as single dose by LC-MS/MS analysis; type: ADME, organism-based, Macaca mulatta; design: dose 6 mg/kg, route oral; settings: rhesus monkey, in vivo
[20] = Ratio of Cmax in monkey plasma at 6 mg/kg, po administered as single dose measured after 1 hr to Cmax in monkey plasma at 6 mg/kg, po administered as single dose measured after 24 hrs; type: ADME, organism-based, Macaca mulatta; settings: rhesus monkey, in vivo
[21] = Tmax in Sprague-Dawley rat thymus at 0.5 mg/kg, po administered as single dose via gavage by LC-MS/MS analysis; type: ADME, organism-based
[22] = Drug metabolism in human PBMC-derived CD4-positive T cells assessed as FNC-TP formation at 350 nM measured after 4 hrs by LC-MS/MS analysis; type: ADME; settings: 0.35 µM
[23] = test system: Human immunodeficiency virus 1; assay: Antiviral activity against JRFL pseudotyped HIV1 infected in human Hut/CCR5 cells assessed as time needed to reach 50% reduction of virus infection at 0.1 nM incubated with cells for 4 hrs prior to compound washout followed by viral infection and measured after 72 hrs by luciferase reporter gene assay; type: functional
[24] = Effect on CD25 surface expression in IL2-induced human PBMC-derived CD4-positive T cells at 100 nM measured after 48 hrs by immunostaining based flow cytometry; type: ADME; settings: 0.1 µM
[25] = Effect on CD69 surface expression in IL2-induced human PBMC-derived CD4-positive T cells at 100 nM measured after 48 hrs by immunostaining based flow cytometry; type: ADME; settings: 0.1 µM
[26] = Effect on HLA-DR surface expression in IL2-induced human PBMC-derived CD4-positive T cells at 100 nM measured after 48 hrs by immunostaining based flow cytometry; type: ADME; settings: 0.1 µM
[27] = Effect on CD25 surface expression in IL2-induced human PBMC-derived CD14-positive monocytes at 100 nM measured after 48 hrs by immunostaining based flow cytometry; type: ADME; settings: 0.1 µM
[28] = Effect on CD69 surface expression in IL2-induced human PBMC-derived CD14-positive monocytes at 100 nM measured after 48 hrs by immunostaining based flow cytometry; type: ADME; settings: 0.1 µM
[29] = Effect on HLA-DR surface expression in IL2-induced human PBMC-derived CD14-positive monocytes at 100 nM measured after 48 hrs by immunostaining based flow cytometry; type: ADME; settings: 0.1 µM
[30] = test system: Human immunodeficiency virus 1; assay: Antiviral activity against HIV1 infected patient assessed as reduction in plasma viremia at 4 mg administered daily for 7 days measured 24 hrs post-last dose by qRT-PCR analysis; type: functional, organism-based
[31] = target: Virion infectivity factor (Human immunodeficiency virus type 1 group M subtype B (isolate NY5)(HIV-1)) (UniProt P12504); assay: Inhibition of HIV1 HA-tagged Vif expressed in HEK293T cells co-expressing Myc-tagged pcDNA-APOBEC3G assessed as reduction in Vif-mediated A3G degradation at 10 nM measured after 48 hrs by Western blot analysis; type: cell-based; settings: Human immunodeficiency virus 1, HEK-293T
Sequence of Virion infectivity factor (Human immunodeficiency virus type 1 group M subtype B (isolate NY5)(HIV-1)) (P12504 whole entry): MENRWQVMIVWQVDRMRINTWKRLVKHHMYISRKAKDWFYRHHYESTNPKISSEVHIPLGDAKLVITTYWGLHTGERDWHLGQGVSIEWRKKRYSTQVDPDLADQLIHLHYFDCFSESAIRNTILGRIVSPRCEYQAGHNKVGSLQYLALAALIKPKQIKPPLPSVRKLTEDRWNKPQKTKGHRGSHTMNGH

[32] = Binding affinity to HIV1 Vif and CBFbeta-ELOB-ELOC complex (unknown origin) assessed as compound-complex adduct formation measured after 150 secs by CM5 chip based assay
[33] = target: Virion infectivity factor (Human immunodeficiency virus type 1 group M subtype B (isolate NY5)(HIV-1)) (UniProt P12504); assay: Inhibition of HIV1 HA-tagged Vif expressed in HEK293T cells co-expressing Myc-tagged pcDNA-APOBEC3G and pcDNA-ubiquitin-His assessed as reduction in Vif-mediated A3G polyubiquitination at 3.5 to 35 nM measured after 48 hrs by Western blot analysis; type: cell-based; settings: Human immunodeficiency virus 1, HEK-293T
[34] = test system: Human immunodeficiency virus 1; assay: Antiviral activity against JRFL pseudotyped HIV1 infected in human Hut/CCR5 cells assessed as time needed to reach 50% reduction of virus infection at 1 nM incubated with cells for 4 hrs prior to compound washout followed by viral infection and measured after 72 hrs by luciferase reporter gene assay; type: functional

In the case of `[N-]=[N+]=N[C@]1(CO)O[C@@H](n2ccc(N)nc2=O)[C@@H](F)[C@@H]1O` [RO-0622], the Activity [1] is reported as “inactive”, the inhibition (Homo sapiens) is reported as “Active” and the EC50 [2] is reported as 0.063 nM. The CC50 [3] was at least 25000 nM, the “Ratio EC50” value [4] was 4700 and the CC50 at 72 h [5] was 340 nM. It also gave a selectivity ratio [6] of 25000, a CI50 [7] of 0.01704 and a CI75 [7] of 0.01929. The CI90 [7] was 0.02209, the CI95 [7] was 0.0244 and the AUC(0-t) at 24 h [8] was 0.499 µM·h. It also gave a Tmax [9] of 1 h, a Cmax [10] of 196 nM and an AUC(0-t) at 24 h [11] of 7.58 µM·h. The Tmax [12] was 1 h, the AUC [13] was 0.09933 µM·h and the Tmax [14] was 6 h. For the same compound, the Cmax [15] was 2.1 nM, the AUC [16] was 0.24922 µM·h and the “beta t1/2” value [17] was 112.4 h. The Tmax [18] was 6 h, the Cmax [19] was 4.07 nM and the Ratio [20] was 320. The Tmax [21] was 7 to 12 h, the Drug metabolism [22] was “Metabolite_Detected” and the Time [23] was 68.6 to 68.63 h. For the same compound, the Activity [24] was “Non-Toxic”, the Activity [25] was “Non-Toxic” and the Activity [26] was “Non-Toxic”. For the same compound, the Activity [27] was “Non-Toxic”, the Activity [28] was “Non-Toxic” and the Activity [29] was “Non-Toxic”. The Activity [30] was “Active”, the inhibition [31] was “Active” and the Activity [32] was 36%. For the same compound, the inhibition [33] was “Active” and the Time [34] was 83.14 h.
